Experimental data published in patent US9302991B2, “Arylamide derivatives as TTX-S blockers” (RaQualia Pharma Inc., priority 2010, dated 2016).

Molecular target: T1, human Nav1.7 channels (Homo sapiens, UniProt Q15858)
T1 construct: expressed in transfected cells; host or cells: CHO
Experiment: FRET assay, human Nav1.7 (EFS on FDSS)
Assay type: cell-based
Details: CHO cells expressing human Nav1.7, read-out: IC50 against Nav1.7
Procedure, shortened: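 CHO cells stably expressing the channel, loaded with CC2-DMPE (10 µM) then DiSBAC2(3) (15 µM) plus VABSC-1, in HEPES-buffered saline pH 7.4 at room temperature. Electrical field stimulation on FDSS; FRET ratio at 440 nm fitted for IC50.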

T1 sequence (Q15858 whole entry): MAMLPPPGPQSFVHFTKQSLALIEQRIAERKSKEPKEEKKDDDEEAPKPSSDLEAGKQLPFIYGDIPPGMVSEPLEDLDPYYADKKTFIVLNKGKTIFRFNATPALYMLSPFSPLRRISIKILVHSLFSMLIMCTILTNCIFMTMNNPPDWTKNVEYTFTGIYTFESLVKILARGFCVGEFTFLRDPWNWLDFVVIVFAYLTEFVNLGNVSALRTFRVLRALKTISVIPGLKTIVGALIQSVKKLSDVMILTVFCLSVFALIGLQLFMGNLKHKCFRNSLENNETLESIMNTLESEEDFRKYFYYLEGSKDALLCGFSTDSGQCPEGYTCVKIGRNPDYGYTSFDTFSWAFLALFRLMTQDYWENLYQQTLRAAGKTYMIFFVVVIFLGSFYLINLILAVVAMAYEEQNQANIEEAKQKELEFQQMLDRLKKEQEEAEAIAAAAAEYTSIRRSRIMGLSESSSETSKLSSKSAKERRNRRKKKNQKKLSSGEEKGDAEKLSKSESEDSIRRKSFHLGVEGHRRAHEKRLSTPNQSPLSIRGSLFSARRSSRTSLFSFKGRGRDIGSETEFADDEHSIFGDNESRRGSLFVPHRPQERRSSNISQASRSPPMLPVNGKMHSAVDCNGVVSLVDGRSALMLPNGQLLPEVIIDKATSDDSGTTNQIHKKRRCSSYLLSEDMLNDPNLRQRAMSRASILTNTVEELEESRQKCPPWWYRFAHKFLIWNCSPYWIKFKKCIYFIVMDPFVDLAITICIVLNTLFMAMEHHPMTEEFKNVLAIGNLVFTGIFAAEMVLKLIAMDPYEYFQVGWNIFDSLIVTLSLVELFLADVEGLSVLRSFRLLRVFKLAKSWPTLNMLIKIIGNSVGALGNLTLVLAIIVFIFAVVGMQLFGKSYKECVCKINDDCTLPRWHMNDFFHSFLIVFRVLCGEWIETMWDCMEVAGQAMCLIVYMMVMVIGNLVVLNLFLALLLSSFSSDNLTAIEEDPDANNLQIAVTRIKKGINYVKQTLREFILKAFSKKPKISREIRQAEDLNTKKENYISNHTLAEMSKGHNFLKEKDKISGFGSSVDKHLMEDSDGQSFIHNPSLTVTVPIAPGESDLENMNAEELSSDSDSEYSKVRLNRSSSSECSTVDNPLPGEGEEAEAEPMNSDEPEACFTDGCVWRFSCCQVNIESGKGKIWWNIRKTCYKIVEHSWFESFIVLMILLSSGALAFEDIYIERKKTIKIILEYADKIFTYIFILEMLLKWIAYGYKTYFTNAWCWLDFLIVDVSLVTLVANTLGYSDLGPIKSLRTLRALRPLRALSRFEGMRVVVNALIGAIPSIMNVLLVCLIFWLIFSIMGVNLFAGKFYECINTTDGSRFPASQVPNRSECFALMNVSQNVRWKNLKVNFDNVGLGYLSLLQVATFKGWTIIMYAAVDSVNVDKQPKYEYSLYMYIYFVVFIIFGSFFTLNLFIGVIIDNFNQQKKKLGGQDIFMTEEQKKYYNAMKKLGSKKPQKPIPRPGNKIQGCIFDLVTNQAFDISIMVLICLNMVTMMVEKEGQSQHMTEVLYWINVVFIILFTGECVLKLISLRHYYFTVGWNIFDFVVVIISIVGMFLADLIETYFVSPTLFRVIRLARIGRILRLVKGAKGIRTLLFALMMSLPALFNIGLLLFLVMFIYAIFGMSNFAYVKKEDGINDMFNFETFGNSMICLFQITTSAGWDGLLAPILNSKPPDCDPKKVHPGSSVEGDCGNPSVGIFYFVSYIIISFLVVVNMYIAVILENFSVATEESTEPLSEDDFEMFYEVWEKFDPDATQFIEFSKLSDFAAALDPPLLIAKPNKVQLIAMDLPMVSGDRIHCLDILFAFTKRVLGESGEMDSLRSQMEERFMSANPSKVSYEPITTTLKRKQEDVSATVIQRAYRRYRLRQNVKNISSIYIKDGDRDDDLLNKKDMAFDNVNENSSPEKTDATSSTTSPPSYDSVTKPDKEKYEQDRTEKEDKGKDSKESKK

IC50, < 1000 nM:
CC(=O)Nc1cc(C(=O)NCc2ccc(OCC(F)(F)F)nc2N2CCCCC2)ccn1 [Example 302, 2-acetamido-N-((2-(piperidin-1-yl)-6-(2,2,2-trifluoroethoxy)pyridin-3-yl)methyl)isonicotinamide]
CC(=O)Nc1cc(C(=O)NC(C)c2cnc(OCC(F)(F)C(F)F)c(C)c2)ccn1 (single isomer, unassigned) [Example 903, 2-acetamido-N-(1-(5-methyl-6-(2,2,3,3-tetrafluoropropoxy)pyridin-3-yl)ethyl)isonicotinamide]
CC(=O)Nc1cc(C(=O)NC(C)c2cc(C(F)(F)F)ccc2F)ccn1 (single isomer, unassigned) [Example 1096, 2-acetamido-N-(1-(2-fluoro-5-(trifluoromethyl)phenyl)ethyl)isonicotinamide]
Cc1cc(C(=O)N[C@H](C)c2cccc(C(F)(F)F)c2)cc(NC(=O)C2CC2)n1 (single isomer, unassigned) [Example 838]
COc1c(CNC(=O)c2ccnc(NC(=O)C(C)C)c2)cccc1C(F)(F)F [Example 820, 2-isobutyramido-N-(2-methoxy-3-(trifluoromethyl)benzyl)isonicotinamide]
COc1nc(OCC(F)(F)F)ccc1CNC(=O)c1cc(C)nc(NC(=O)C(C)C)n1 [Example 374, 2-isobutyramido-N-((2-methoxy-6-(2,2,2-trifluoroethoxy)pyridin-3-yl)methyl)-6-methylpyrimidine-4-carboxamide]
CC(=O)Nc1cc(C(=O)N(C)C(C)c2cnc(OCC(F)(F)F)c(C)c2)ccn1 (single isomer, unassigned) [Example 392, 2-acetamido-N-methyl-N-(1-(5-methyl-6-(2,2,2-trifluoroethoxy)pyridin-3-yl)ethyl)isonicotinamide]
CC(=O)Nc1cc(C(=O)NCc2ccc(OCC(F)(F)F)nc2N2CCOCC2)ccn1 [Example 281, 2-acetamido-N-((2-morpholino-6-(2,2,2-trifluoroethoxy)pyridin-3-yl)methyl)isonicotinamide]
COc1nc(OCC(F)F)ccc1CNC(=O)c1ccnc(NC(=O)C2CC2)c1 [Example 1153, 2-(cyclopropanecarboxamido)-N-((6-(2,2-difluoroethoxy)-2-methoxypyridin-3-yl)methyl)isonicotinamide]
CC(=O)Nc1cc(C(=O)NCc2cnc(OCC(F)(F)F)c(-c3ccco3)c2)ccn1 [Example 770, 2-acetamido-N-((5-(furan-2-yl)-6-(2,2,2-trifluoroethoxy)pyridin-3-yl)methyl)isonicotinamide]
CC(C)C(=O)Nc1cc(C(=O)NCc2ccc(OCC(F)(F)F)nc2N2CCCCC2)ccn1 [Example 305, 2-isobutyramido-N-((2-(piperidin-1-yl)-6-(2,2,2-trifluoroethoxy)pyridin-3-yl)methyl)isonicotinamide]
COc1nc(OCC(F)F)ccc1C(C)NC(=O)c1ccnc(NC(=O)C2CC2)c1 (single isomer, unassigned) [Example 1162, 2-(cyclopropanecarboxamido)-N-(1-(6-(2,2-difluoroethoxy)-2-methoxypyridin-3-yl)ethyl)isonicotinamide]
CCC(=O)Nc1cc(C(=O)NCc2cnc(OCC(F)(F)F)c(OC)c2)cc(C)n1 [Example 270]
Cc1cc(C(=O)NC(C)c2ccc(OCC(F)F)c(C)c2)nc(NC(=O)C2CC2)n1 (single isomer, unassigned) [Example 1075, 2-(cyclopropanecarboxamido)-N-(1-(4-(2,2-difluoroethoxy)-3-methylphenyl)ethyl)-6-methylpyrimidine-4-carboxamide]
CC(NC(=O)c1ccnc(NC(=O)C2CC2)c1)c1ccc(OCC(F)(F)F)nc1 (single isomer, unassigned) [Example 9, 2-(cyclopropanecarboxamido)-N-(1-(6-(2,2,2-trifluoroethoxy)pyridin-3-yl)ethyl)isonicotinamide]
COc1cc(C(C)NC(=O)c2ccnc(NC(=O)C3CC3)n2)cnc1OCC(F)(F)F (single isomer, unassigned) [Example 400, 2-(cyclopropanecarboxamido)-N-(1-(5-methoxy-6-(2,2,2-trifluoroethoxy)pyridin-3-yl)ethyl)pyrimidine-4-carboxamide]
CCCC(=O)Nc1cc(C(=O)NCc2ccc(OCC(F)(F)F)nc2OCC)ccn1 [Example 337, 2-butyramido-N-((2-ethoxy-6-(2,2,2-trifluoroethoxy)pyridin-3-yl)methyl)isonicotinamide]
CCC(=O)Nc1cc(C(=O)NCc2cnc(OCC(F)(F)F)cc2C)cc(C)n1 [Example 179, 2-methyl-N-((4-methyl-6-(2,2,2-trifluoroethoxy)pyridin-3-yl)methyl)-6-propionamidoisonicotinamide]
O=C(NCc1cccc(C(F)(F)F)c1)c1ccnc(NC(=O)C2CC2)n1 [Example 404, 2-(cyclopropanecarboxamido)-N-(3-(trifluoromethyl)benzyl)pyrimidine-4-carboxamide]
Cc1cc(C(=O)NC(C)c2ccc(OCC(F)F)c(Cl)c2)cc(NC(=O)C(C)C)n1 (single isomer, unassigned) [Example 1101, N-(1-(3-chloro-4-(2,2-difluoroethoxy)phenyl)ethl)-2-isobutyramido-6-methylisonicotinamide]
CC(=O)Nc1cc(C(=O)N[C@H](C)c2cccc(C(F)(F)F)c2)ccn1 (single isomer, unassigned) [Example 7]
CCC(=O)Nc1cc(C(=O)NCc2ccc(OCC(F)F)c(C)c2)ccn1 [Example 989, N-(4-(2,2-difluoroethoxy)-3-methylbenzyl)-2-propionamidoisonicotinamide]
CC(=O)Nc1cc(C(=O)NCc2ccc(OCC(F)(F)F)nc2)cc(C)n1 [Example 237, 2-acetamido-6-methyl-N-((6-(2,2,2-trifluoroethoxy)pyridin-3-yl)methyl)isonicotinamide]
CCC(=O)Nc1cc(C(=O)NCc2ccc(OCC(F)(F)F)nc2N2CCOCC2)cc(C)n1 [Example 284, 2-methyl-N-((2-morpholino-6-(2,2,2-trifluoroethoxy)pyridin-3-yl)methyl)-6-propionamidoisonicotinamide]
Cc1cc(OCC(F)(F)F)ncc1CNC(=O)c1ccnc(NC(=O)C2CC2)n1 [Example 403, 2-(cyclopropanecarboxamido)-N-((4-methyl-6-(2,2,2-trifluoroethoxy)pyridin-3-yl)methyl)pyrimidine-4-carboxamide]
COc1cc(OC(F)(F)F)ccc1CNC(=O)c1cc(C)nc(NC(C)=O)c1 [Example 870, 2-acetamido-N-(2-methoxy-4-(trifluoromethoxy)benzyl)-6-methylisonicotinamide]
